Results: ChEMBL document CHEMBL1201862, “PubChem BioAssay data set” (2004)
Counter-ions that a name gives are not always drawn. The source made the active and inactive calls.

Columns and labels:
Format in all cases: functional
[1] = target: T1, Short transient receptor potential channel 4 (Mus musculus, UniProt Q9QUQ5); assay: calcium entry via TRPC4 opening agents – cell-based, HEK293 TRPC4/mu-opioid, Fluo-4 calcium, dose response (AID 434937)
T1 sequence (Q9QUQ5 whole entry): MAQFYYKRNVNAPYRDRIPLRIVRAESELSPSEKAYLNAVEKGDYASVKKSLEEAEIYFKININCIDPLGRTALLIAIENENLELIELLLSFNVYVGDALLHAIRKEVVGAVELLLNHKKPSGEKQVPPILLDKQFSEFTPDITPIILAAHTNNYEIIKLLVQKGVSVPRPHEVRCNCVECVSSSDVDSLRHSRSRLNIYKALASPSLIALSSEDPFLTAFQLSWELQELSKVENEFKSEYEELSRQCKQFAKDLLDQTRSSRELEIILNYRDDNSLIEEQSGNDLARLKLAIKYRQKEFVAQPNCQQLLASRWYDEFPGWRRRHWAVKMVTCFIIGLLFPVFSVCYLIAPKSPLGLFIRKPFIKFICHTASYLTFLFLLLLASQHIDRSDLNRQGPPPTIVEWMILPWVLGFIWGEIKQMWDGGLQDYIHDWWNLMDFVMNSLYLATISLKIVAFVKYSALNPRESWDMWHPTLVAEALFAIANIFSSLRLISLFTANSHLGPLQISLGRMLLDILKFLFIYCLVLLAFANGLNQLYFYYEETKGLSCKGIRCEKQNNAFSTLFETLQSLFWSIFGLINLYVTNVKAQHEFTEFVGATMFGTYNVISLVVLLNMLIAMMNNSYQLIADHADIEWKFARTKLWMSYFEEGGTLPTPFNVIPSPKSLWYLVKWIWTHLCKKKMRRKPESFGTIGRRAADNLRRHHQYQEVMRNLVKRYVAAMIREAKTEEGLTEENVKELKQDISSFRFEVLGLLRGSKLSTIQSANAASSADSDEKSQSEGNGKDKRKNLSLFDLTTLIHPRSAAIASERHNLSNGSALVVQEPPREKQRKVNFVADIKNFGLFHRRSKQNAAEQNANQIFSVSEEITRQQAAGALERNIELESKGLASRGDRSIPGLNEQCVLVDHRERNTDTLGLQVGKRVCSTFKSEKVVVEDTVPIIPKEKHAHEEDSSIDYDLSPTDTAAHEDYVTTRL

[2] = target: T2, Replicative DNA helicase DnaB (Mycobacterium tuberculosis, UniProt P9WMR3); assay: DnaB intein splicing inhibitors, dose response, biochemical, cell-free fluorescence (AID 449749)
T2 sequence (P9WMR3 whole entry): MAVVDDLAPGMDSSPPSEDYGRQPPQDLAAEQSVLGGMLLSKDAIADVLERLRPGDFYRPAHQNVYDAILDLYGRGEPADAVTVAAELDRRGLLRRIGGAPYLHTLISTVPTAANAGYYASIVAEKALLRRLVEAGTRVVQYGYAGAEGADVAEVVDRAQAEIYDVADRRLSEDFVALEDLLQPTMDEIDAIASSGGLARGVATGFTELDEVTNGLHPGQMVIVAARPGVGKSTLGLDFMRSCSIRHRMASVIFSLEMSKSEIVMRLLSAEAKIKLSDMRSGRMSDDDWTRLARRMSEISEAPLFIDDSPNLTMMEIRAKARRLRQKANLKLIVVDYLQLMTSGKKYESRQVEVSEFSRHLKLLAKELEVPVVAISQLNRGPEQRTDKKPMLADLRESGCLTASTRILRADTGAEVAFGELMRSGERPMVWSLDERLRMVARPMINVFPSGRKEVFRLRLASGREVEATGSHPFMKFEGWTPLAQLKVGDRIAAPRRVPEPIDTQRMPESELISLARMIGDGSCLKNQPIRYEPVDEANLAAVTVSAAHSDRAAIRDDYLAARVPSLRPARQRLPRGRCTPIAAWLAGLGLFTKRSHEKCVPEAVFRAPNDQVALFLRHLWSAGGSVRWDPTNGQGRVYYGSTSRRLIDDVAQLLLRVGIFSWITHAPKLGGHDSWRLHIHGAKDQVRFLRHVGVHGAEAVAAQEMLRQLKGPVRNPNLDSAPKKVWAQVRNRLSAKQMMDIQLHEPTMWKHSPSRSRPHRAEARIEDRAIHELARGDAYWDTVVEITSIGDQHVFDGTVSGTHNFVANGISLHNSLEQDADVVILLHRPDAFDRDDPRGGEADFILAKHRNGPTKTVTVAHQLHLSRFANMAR

Protein RecA = target: T3, Protein RecA (Mycobacterium tuberculosis, UniProt P9WHJ3); assay: Fluorescence Cell-Free Homogeneous Dose Retest to Identify Inhibitors of RecA-Intein Splicing Activity. [Related pubchem assays (depositor defined):AID2097, AID2223, AID489010, AID492950]
T3 sequence (P9WHJ3 whole entry): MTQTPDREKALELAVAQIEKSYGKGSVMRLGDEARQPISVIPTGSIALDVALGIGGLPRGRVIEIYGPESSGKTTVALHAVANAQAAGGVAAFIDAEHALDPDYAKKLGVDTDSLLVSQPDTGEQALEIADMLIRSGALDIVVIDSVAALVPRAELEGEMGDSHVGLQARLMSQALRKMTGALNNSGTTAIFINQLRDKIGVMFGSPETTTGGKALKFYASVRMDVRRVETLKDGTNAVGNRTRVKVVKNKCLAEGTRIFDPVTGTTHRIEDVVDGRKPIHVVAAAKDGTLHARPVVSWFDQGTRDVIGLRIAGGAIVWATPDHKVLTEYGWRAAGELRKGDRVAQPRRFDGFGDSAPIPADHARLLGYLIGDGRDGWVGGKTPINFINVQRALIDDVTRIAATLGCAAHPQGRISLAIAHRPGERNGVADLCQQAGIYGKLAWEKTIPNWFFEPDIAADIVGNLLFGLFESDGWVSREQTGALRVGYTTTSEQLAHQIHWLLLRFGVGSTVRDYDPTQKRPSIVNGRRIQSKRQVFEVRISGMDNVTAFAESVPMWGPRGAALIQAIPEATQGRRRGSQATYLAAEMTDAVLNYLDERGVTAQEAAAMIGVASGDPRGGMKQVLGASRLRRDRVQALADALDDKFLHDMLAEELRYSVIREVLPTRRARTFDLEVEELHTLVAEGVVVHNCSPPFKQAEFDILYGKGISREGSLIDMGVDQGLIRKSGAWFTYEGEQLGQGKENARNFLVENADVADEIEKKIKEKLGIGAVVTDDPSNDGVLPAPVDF

| Compound | EC50 [1] | AC50 [2] | EC50 (Protein RecA) |
| --- | --- | --- | --- |
| CCN1/C(=C\c2ccc3ccccc3[n+]2CC)Sc2cc(C)ccc21 | 4.73 µM (active) |  |  |
| CCCCCCCCCCOC(=O)C[n+]1c(COc2ccc(C)cc2)n(C)c2ccccc21 |  | 3.82 µM (active) | 11.7 µM (active) |
| O=C(CCl)Oc1ccc2occ(C(=O)c3cccs3)c2c1 |  | 16.8 µM (active) | 19.3 µM (active) |
| CC[C@@H](CO)NC(=O)[C@@H]1C=C2c3cccc4c3c(cn4C)C[C@H]2N(C)C1 [METHYSERGIDE MALEATE] | 1.5 µM (active) | > 380 µM (inactive) | 237 µM (active) |
